From PubChem BioAssay AID1508612

Test: passive permeability, PAMPA, ADME assay (AID 1508612)
Details: pH 7.4, 30.0 min, 50.0 µM

SMILES	Papp
CNC(=O)c1nn(C)c2c1C(C)(C)Cc1cnc(Nc3ccc(N4CCN(C)CC4)cc3)nc1-2	> 1000 ×10⁻⁶ cm/s
CCOC(=O)C1CCN(C(=O)C2(NC(=O)Nc3ccccc3Cl)CCCC2)CC1	229 ×10⁻⁶ cm/s
COc1cccc(-c2csc(N3CCC(C(N)=O)CC3)n2)c1	638 ×10⁻⁶ cm/s
CN(Cc1cnc2nc(N)nc(N)c2n1)c1ccc(C(=O)N[C@@H](CCC(=O)O)C(=O)O)cc1	5.39 ×10⁻⁶ cm/s
Nc1nc2c(s1)C(c1cccc(F)c1F)CC(=O)N2 (configuration not stated)	9.86 ×10⁻⁶ cm/s
CCN(CCN(C)C)C(=O)C1CCN(S(=O)(=O)c2c(C)noc2/C=C/c2ccccc2F)CC1	> 1000 ×10⁻⁶ cm/s
O=C1CCCC2=C1C(c1[nH]ncc1Cl)N=C(Nc1nc3ccc(Cl)cc3o1)N2 (configuration not stated)	651 ×10⁻⁶ cm/s
NC(=O)Nc1cc(-c2ccc(CN3CCOCC3)cc2)sc1C(N)=O	40.3 ×10⁻⁶ cm/s
Cc1nc(N2CCN(c3ccccn3)CC2)c2c(C)c(C(=O)Nc3ccc(F)cc3Cl)sc2n1	> 1000 ×10⁻⁶ cm/s
COc1ccc(NC(=O)CCCc2nnc3n(CCC(C)C)c(=O)c4sccc4n23)cc1Cl	> 1000 ×10⁻⁶ cm/s
CS(=O)(=O)c1ccc2nc(NC(=O)C3CC3)sc2c1	106 ×10⁻⁶ cm/s
O=C(NC[C@H]1Cn2c(-c3ccc(Cl)cc3)cnc2CO1)C1CCCC1	108 ×10⁻⁶ cm/s
Cc1ccc(S(=O)(=O)N2CCN(C(=O)c3cc4c(s3)CCC4)CC2)cc1	> 1000 ×10⁻⁶ cm/s
Cc1ccnc(NC(=S)N2CCN(c3ccc(N)cc3)CC2)c1	717 ×10⁻⁶ cm/s
Cc1ccnc(C)c1C(=O)Nc1cccc([S+](=O)([O-])N(C)C)c1	98.5 ×10⁻⁶ cm/s
CCOC(=O)NNc1ccc(N(CC)CC(C)O)nn1 (configuration not stated)	10.7 ×10⁻⁶ cm/s

SMILES	Papp
COc1c2c(c3c(c1CCC(=O)O)OC(C)(C)C=C3)OC(C)(C)C=C2	43.9 ×10⁻⁶ cm/s
COc1ccc(-n2nc(C3CCCN(C(=O)C4CC4)C3)[nH]c2=O)cc1 (configuration not stated)	113 ×10⁻⁶ cm/s
CCOc1ccc(CCNC(=O)c2ccnn2Cc2ccccn2)cc1OCC	177 ×10⁻⁶ cm/s
CCCCN(CC)CCNC(=O)c1cc2c(-c3ccc(Cl)cc3)nn(C)c2s1	> 1000 ×10⁻⁶ cm/s
NC1CCN(C(=O)C2CCCN(c3nc(-c4ccccc4)nc4c3CCC4)C2)CC1 (configuration not stated)	475 ×10⁻⁶ cm/s
CCCCn1cnc2cc(NC(=O)c3cc(OC)c(OC)c(OC)c3)ccc21	693 ×10⁻⁶ cm/s
COC(=O)c1c(NC(=O)Cc2coc3cc(C)ccc23)sc2c1CCC2	26 ×10⁻⁶ cm/s
Cc1cc(-c2nnc3n2CCCCC3)c(C)n1-c1cccc(C#N)c1	229 ×10⁻⁶ cm/s
CCCc1cc(C)[nH]c(=O)c1CNC(=O)c1cc(-c2ccnc(N3CCN(C)CC3)c2)cc2c1cnn2C(C)C	782 ×10⁻⁶ cm/s
Cn1nnnc1Sc1ncnc2scc(Br)c12	177 ×10⁻⁶ cm/s
CN1CCc2cc3c(cc2C1)OCO3	316 ×10⁻⁶ cm/s
CC(C)(C)c1cc(NC(=O)Nc2ccc(-c3cn4c(n3)sc3cc(OCCN5CCOCC5)ccc34)cc2)no1	< 1 ×10⁻⁶ cm/s
CC(C)(O)/C=C\C(=O)[C@](C)(O)[C@H]1[C@H](O)C[C@]2(C)[C@@H]3CC=C4[C@@H](C=C(O)C(=O)C4(C)C)[C@]3(C)C(=O)C[C@@]12C	184 ×10⁻⁶ cm/s
Cc1nsc(N)c1C(=O)N(C)CCOc1ccccc1Cl	389 ×10⁻⁶ cm/s
CCCCC1CCC(C(=O)Nc2ccc(S(=O)(=O)Nc3nccs3)cc2)CC1 (configuration not stated)	587 ×10⁻⁶ cm/s
O=C1Nc2ccc(I)cc2C1=Cc1cc(Br)c(O)c(Br)c1	150 ×10⁻⁶ cm/s

Further lines, results first:

Papp	SMILES
41.1 ×10⁻⁶ cm/s	O=C1Nc2ccc(C(=O)c3ccco3)cc2/C1=C/c1cc(Cl)c(O)c(Cl)c1
207 ×10⁻⁶ cm/s	Cc1nc2c(-c3ccccc3)cnn2c(N)c1-c1ccccc1
61.8 ×10⁻⁶ cm/s	O=C(NC1CCCN(c2cc(-c3ccc(F)cc3)[nH]n2)C1)c1ccc2ncccc2c1 (configuration not stated)
716 ×10⁻⁶ cm/s	CNc1sc(-c2cccc3ccccc23)nc1C#N
953 ×10⁻⁶ cm/s	NC(=O)C1CCN(c2nc(-c3ccc(Oc4ccccc4)cc3)cs2)CC1
34.6 ×10⁻⁶ cm/s	Cc1ccc(C)n1-c1cccc(C(=O)O)c1
16.5 ×10⁻⁶ cm/s	Fc1ccc(Oc2nc(-c3ccncc3)nc3ccccc23)cc1F
897 ×10⁻⁶ cm/s	O=C1CCCC2=C1C(c1ccncc1Cl)N=C(Nc1nc3ccccc3o1)N2 (configuration not stated)
814 ×10⁻⁶ cm/s	Cc1ccc(S(=O)(=O)Nc2ncccc2C(=O)Nc2nc(-c3ccccc3)cs2)cc1
< 1 ×10⁻⁶ cm/s	CC(=O)Nc1ccc(C(=O)Nc2ccccc2N)cc1
958 ×10⁻⁶ cm/s	Clc1ccccc1-c1nnc2sc(-c3ccc4c(c3)OCO4)nn12
> 1000 ×10⁻⁶ cm/s	COc1ccc(OC)c(-c2cc(C(=O)N3CCN(c4ncccn4)CC3)c3ccccc3n2)c1
< 1 ×10⁻⁶ cm/s	CN(C)CCOc1ccc(C(=C(CCCl)c2ccccc2)c2ccccc2)cc1
802 ×10⁻⁶ cm/s	C#CCNC(=O)c1nc(-c2ccc(Cl)nc2)c2ccccn12
> 1000 ×10⁻⁶ cm/s	CS(=O)(=O)c1ccc(-c2nnc(/C=C/c3nnc(-c4ccc(C#N)cc4)o3)n2-c2ccccc2Cl)nc1
< 1 ×10⁻⁶ cm/s	Cc1cc(F)ccc1-c1nc(NCCN=C(N)NC#N)nc2c1ccc(=O)n2-c1c(F)cccc1F
798 ×10⁻⁶ cm/s	O=C(Nc1nc(-c2ccccc2)cs1)c1ccncc1NS(=O)(=O)c1ccc(F)cc1F
936 ×10⁻⁶ cm/s	Cn1nnnc1Sc1ncnc2scc(-c3cc4ccccc4o3)c12
715 ×10⁻⁶ cm/s	O=C1c2ccccc2-n2c1nc1ccccc1c2=O
533 ×10⁻⁶ cm/s	COc1cccc(C(=O)Nc2ccc3oc(-c4ccc5ccccc5c4)nc3c2)c1
445 ×10⁻⁶ cm/s	COc1cc(Nc2nc(-c3ccncc3)nc3ccccc23)ccc1F
> 1000 ×10⁻⁶ cm/s	CC(=O)c1c(C)oc2ccc(N(C(=O)Oc3ccccc3)S(=O)(=O)c3ccccc3)cc12
93.1 ×10⁻⁶ cm/s	COc1cc(-c2ccnc3c2c(C)nn3-c2cccc(C(F)(F)F)c2)ccc1O

Papp	SMILES
13.5 ×10⁻⁶ cm/s	Nc1ncc(S(=O)(=O)N2CCN(c3ccccc3)CC2)cn1
> 1000 ×10⁻⁶ cm/s	CN(C(=O)COC(=O)c1csc(NCc2ccccc2)n1)c1ccccc1
675 ×10⁻⁶ cm/s	COc1ccc(S(=O)(=O)Nc2cnccc2C(=O)Nc2nc(-c3ccccc3)cs2)cc1
> 1000 ×10⁻⁶ cm/s	O=C(Nc1ccccc1C(=O)Nc1ccccc1C(=O)NCc1ccco1)c1ccco1
760 ×10⁻⁶ cm/s	COc1ccc2[nH]c(=O)c(-c3noc(-c4ccccc4)n3)cc2c1
941 ×10⁻⁶ cm/s	CCn1c(=O)cc(OCC(=O)N2CCN(c3cccc(Cl)c3)CC2)c2ccccc21
11.5 ×10⁻⁶ cm/s	Cc1cc(NS(=O)(=O)c2ccc(NC(=O)Cc3ccc(Cl)c(F)c3)cc2)no1
> 1000 ×10⁻⁶ cm/s	CCOC(=O)CCNc1cc(N2CCc3ccccc3CC2)nc(-c2ccccn2)n1
676 ×10⁻⁶ cm/s	Cc1cccc(N2CCN(C(=O)Cn3ncc4c3-c3ccccc3OC4)CC2)c1C
315 ×10⁻⁶ cm/s	Cn1cc(-c2nc(Nc3ccc(F)c(F)c3)c3ccccc3n2)cn1
> 1000 ×10⁻⁶ cm/s	CC1(C)CC(=O)C2=C(C1)NC(Nc1nc3ccccc3o1)=NC2c1ccccc1Cl (configuration not stated)
20.6 ×10⁻⁶ cm/s	CC(=O)Nc1ccc(N[S+](=O)([O-])c2cccc(NC(=O)c3[nH]c(C)c(C(C)=O)c3C)c2)cc1
22.3 ×10⁻⁶ cm/s	Cc1ccc(-c2cc(C(=O)Nc3cccc(S(=O)(=O)Nc4nccs4)c3)c3ccccc3n2)cc1C
23.9 ×10⁻⁶ cm/s	Cc1ccc(S(=O)(=O)Nc2ccc(C(=O)Nc3nc(-c4ccccc4)cs3)cc2Cl)cc1
619 ×10⁻⁶ cm/s	COc1cccc(CNC(=O)CCCn2nc(C)c3c(C)n(-c4ccc(C)cc4)nc3c2=O)c1OC
> 1000 ×10⁻⁶ cm/s	Fc1cnc(-c2ccccc2C(F)F)nc1NCc1ccc(-c2cccnc2)cc1
287 ×10⁻⁶ cm/s	COc1ccccc1C(=O)Nc1nnc(SCc2cc(=O)c3ccccc3[nH]2)s1
135 ×10⁻⁶ cm/s	O=C(NC1CCCc2c1[nH]c1ccccc21)c1ccccc1 (configuration not stated)
269 ×10⁻⁶ cm/s	N#Cc1cnccc1-c1nc(Nc2ccc(F)c(F)c2)c2ccccc2n1
> 1000 ×10⁻⁶ cm/s	Cc1ccc(N2CCC(CNc3nc(-c4ccccc4C(C)C)ncc3C)CC2)cn1
4.23 ×10⁻⁶ cm/s	Cc1ccc(-c2cc(C(=O)Nc3ccc(-c4nn[nH]n4)cc3)c3ccccc3n2)cc1C
> 1000 ×10⁻⁶ cm/s	CC(C)c1ccccc1-c1ncc(F)c(NCc2ccc(-n3ccnn3)cc2)n1
